How the values were obtained:
[1] = tested on: rat brain lysate proteins; assay: Affinity isolation (pull-down) from rat brain lysate, silver stain and proteomics; assay type: binding; settings: for proteins pulled down (silver stain, words): biotinylated peptide, rat brain lysate, streptavidin beads; for enrichment of co-precipitated proteins by mass spectroscopy: in comparison to control conditions (absence of peptide)
Procedure: Brains were obtained from adult (2–3 months old) Sprague-Dawley rats raised in the animal facility of Bordeaux University B 33 063 917. Animals were killed by decapitation after isoflurane anaesthesia (5%, 3 min), in accordance with the European 2010/63/EU directive and approved by the Bordeaux University Ethics Committee (CE50). Frozen brains (2 × ~1.5 g) were thawed in 20 mL ice cold modified RIPA buffer (50 mM Tris pH 7.5, 150 mM NaCl, 0.1% SDS, 0.5% sodium deoxycholate, 1% NP-40, 1 mM EDTA) containing a protease inhibitor mixture (1:1000; Protease Inhibitor Cocktail set III; Calbiochem) for about 5 min and cut into small pieces. The tissues were homogenised using a glass/teflon homogeniser. Homogenates were centrifuged at 7500 × g for 25 min at 4 °C to remove cell debris. The supernatant was aliquoted and stored at −80 °C until the affinity-based isolation (pull-down) experiments were performed. Streptavidin-coated beads (Dynabeads M-280, Life Technologies) were washed three times and incubated for 15 min at room temperature (RT) in modified RIPA buffer supplemented with 0.1% BSA. Rat brain lysates were incubated with the biotinylated peptide (or biotin as a negative control) for 10 min at RT before addition of the beads and further incubation for 5 min at RT. Beads were washed five times in RIPA buffer and transferred into new eppendorf tubes. For elution, acetylated ligands were added in excess to the bead suspension and incubated for 5 min at RT. The supernatant was kept for proteomics analysis and electrophoresis followed by silver staining after addition of fresh 6× sample buffer (ProteoSilver Silver Stain Kit, Sigma-Aldrich).
Samples were solubilized in Laemlli buffer and were deposited in triplicate onto SDS-PAGE. Separation was stopped once proteins have entered resolving gel. After colloidal blue staining, bands were cut out from the SDS-PAGE gel and subsequently cut in 1 mm × 1 mm gel pieces. Gel pieces were destained in 25 mM ammonium bicarbonate 50% MeCN, rinsed twice in ultrapure water and shrunk in MeCN for 10 min. After MeCN removal, gel pieces were dried at room temperature, covered with the trypsin solution (10 ng/µl in 50 mM NH4HCO3), rehydrated at 4 °C for 10 min, and finally incubated overnight at 37 °C. Spots were then incubated for 15 min in 50 mM NH4HCO3 at room temperature with rotary shaking. The supernatant was collected, and an H2O/MeCN/HCOOH (47.5:47.5:5) extraction solution was added onto gel slices for 15 min. The extraction step was repeated twice. Supernatants were pooled and dried in a vacuum centrifuge to a final volume of 25 µL. Digests were finally resuspended in 25 µl of formic acid (5%, v/v) and stored at −20 °C.
Peptide mixture was analysed on a Ultimate 3000 nanoLC system (Dionex, Amsterdam, The Netherlands) coupled to a nanospray LTQ-Orbitrap XL mass spectrometer (ThermoFinnigan, San Jose, CA). Ten microliters of peptide digests were loaded onto a 300-µm-inner diameter × 5-mm C18 PepMap^TM trap column (LC Packings) at a flow rate of 30 µL/min. The peptides were eluted from the trap column onto an analytical […] × 15-cm C18 Pep-Map column (LC Packings) with a 4–40% linear gradient of solvent B in 35 min (solvent A was 0.1% formic acid in 5% MeCN, and solvent B was 0.1% formic acid in 80% MeCN). The separation flow rate was set at 300 nL/min. The mass spectrometer operated in positive ion mode at a 2-kV needle voltage. Data were acquired in a data-dependent mode. Mass spectrometry (MS) scans (m/z 300–1700) were recorded at a resolution of R = 70,000 (@ m/z 400) and an AGC target of 5 × 10^5 ions collected within 500 ms. Dynamic exclusion was et to 30 s and top 6 ions were selected from fragmentation in CID mode. MS/MS scans with a target value of 1 × 10^4 ions were collected in the ion trap with a maximum fill time of 200 ms. Additionally, only +2 and +3 charged ions were selected for fragmentation. […]

[2] = target: T1, Ntr-bSUMO-amphSH3 complex (tetrameric, neutravidin) (Mus musculus, UniProt Q7TQF7); assay: SPR, tetrameric Ntr-bSUMO-amphSH3 on immobilized peptides; assay type: binding, murine; settings: in the tested concentration range
T1 construct: murine Ampiphysin1 SH3 domain residues 607–686); made in house; host or cells: E. coli BL21 (DE3) co-expressing BirA, with biotin
T1 sequence (Q7TQF7 607-686): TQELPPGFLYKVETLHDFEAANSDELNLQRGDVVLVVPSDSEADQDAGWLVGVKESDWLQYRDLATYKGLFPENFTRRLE
T1 sequence (P02701 25-152 partner): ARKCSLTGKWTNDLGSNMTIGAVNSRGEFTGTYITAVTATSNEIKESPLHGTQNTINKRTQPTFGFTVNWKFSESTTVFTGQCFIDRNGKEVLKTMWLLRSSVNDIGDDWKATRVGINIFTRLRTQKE

[3] = pull-down from rat brain lysate, LC-MS/MS, vs no peptide control

CC(=O)N[C@@H](Cc1ccc(O)cc1)C(=O)N[C@@H](CCCCn1cc(CCC(=O)NCCCOCCOCCOCCCNC(=O)CCC(=O)NCCCOCCOCCOCCCNC(=O)CCC(=O)NCCCOCCOCCOCCCNC(=O)CCC(=O)N2CCC[C@H]2C(=O)N2CCC[C@H]2C(=O)N2CCC[C@H]2C(=O)N[C@@H](CCC(N)=O)C(=O)N[C@H](C(=O)N2CCC[C@H]2C(=O)N[C@@H](CO)C(=O)N[C@@H](CCCNC(=N)N)C(=O)N2CCC[C@H]2C(=O)N[C@@H](CC(N)=O)C(=O)N[C@@H](CCCNC(=N)N)C(=O)N[C@@H](C)C(=O)N2CCC[C@H]2C(=O)N2CCC[C@H]2C(=O)NCC(N)=O)C(C)C)nn1)C(=O)NCCCOCCOCCOCCCNC(=O)CCC(=O)NCCCOCCOCCOCCCNC(=O)CCC(=O)NCCCOCCOCCOCCCNC(=O)CCC(=O)N1CCC[C@H]1C(=O)N1CCC[C@H]1C(=O)N1CCC[C@H]1C(=O)N[C@@H](CCC(N)=O)C(=O)N[C@H](C(=O)N1CCC[C@H]1C(=O)N[C@@H](CO)C(=O)N[C@@H](CCCNC(=N)N)C(=O)N1CCC[C@H]1C(=O)N[C@@H](CC(N)=O)C(=O)N[C@@H](CCCNC(=N)N)C(=O)N[C@@H](C)C(=O)N1CCC[C@H]1C(=O)N1CCC[C@H]1C(=O)NCC(N)=O)C(C)C [dD15-N]
proteins pulled down (silver stain, words) [1]: isolated a number of proteins | enrichment of co-precipitated proteins by mass spectroscopy [1]: highly enriched in CME related proteins | Max fold change, AP2a1 [1, 3]: 28.6 | Max fold change, AP2a2 [1, 3]: 13.8 | Max fold change, AP2b1 [1, 3]: 40.0 | Max fold change, AP2m1 [1, 3]: 25.5 | Max fold change, Actg1 [1, 3]: 2.2 | Max fold change, Actg2 [1, 3]: 2.3 | Max fold change, Amphiphysin1 [1, 3]: 40.7 | Max fold change, Amy1a [1, 3]: 2.8 | Max fold change, Appbp2 [1, 3]: 20.8 | Max fold change, Atp1a3 [1, 3]: 33.4 | Max fold change, BIN1 (Amph2) [1, 3]: 70.2 | Max fold change, CD2-ap [1, 3]: 124.5 | Max fold change, CHC [1, 3]: 22.7 | Max fold change, Calcoco1 [1, 3]: 11.9 | Max fold change, Capza1 [1, 3]: 23.0 | Max fold change, Dnm1 [1, 3]: 27.4 | Max fold change, Endophilin-A1 [1, 3]: 53.5 | Max fold change, Endophilin-A2 [1, 3]: 1.7 | Max fold change, Eps15l1 [1, 3]: 196.9 | Max fold change, Hspa5 [1, 3]: 4.1 | Max fold change, Hspa8 [1, 3]: 15.6 | Max fold change, Hspa9 [1, 3]: 42.1 | Max fold change, Intersectin-1 [1, 3]: 60.7 | Max fold change, Intersectin-2 [1, 3]: 118.9 | Max fold change, Rundc3a [1, 3]: 16.0 | Max fold change, SH3d19 [1, 3]: 42.9 | Max fold change, SH3kbp1/CIN85 [1, 3]: 207.5 | Max fold change, SNX18 [1, 3]: 16.1 | Max fold change, Tuba1a [1, 3]: 13.3 | Max fold change, Tuba4a [1, 3]: 14.5 | Max fold change, Tubb2a [1, 3]: 75.4 | Max fold change, Tubb3 [1, 3]: 1.2 | Max fold change, Tubb4a [1, 3]: 43.4 | Max fold change, Tubb5 [1, 3]: 18.0 | Max fold change, Ubc [1, 3]: 1.2

Ac-YPPPQVPSRPNRAPPG-NH2 [D15, reference compound]
binding of Ntr-bSUMO-amphSH3 [2]: no binding was observed | proteins pulled down (silver stain, words) [1]: unable to pull down any detectable amount of protein | enrichment of co-precipitated proteins by mass spectroscopy [1]: failed to show any significant enrichment | Max fold change, BIN1 (Amph2) [1, 3]: 0.163 | Max fold change, CD2-ap [1, 3]: 0.01 | Max fold change, Endophilin-A1 [1, 3]: 0.001 | Max fold change, Intersectin-2 [1, 3]: 0.944 | Max fold change, SH3d19 [1, 3]: 0.232 | Max fold change, SH3kbp1/CIN85 [1, 3]: 0.205 | Max fold change, any SH3 domain-containing protein [1, 3]: < 1

Source: article PMC6773865, “Functional recruitment of dynamin requires multimeric interactions for efficient endocytosis” (Nature Communications, 2019)
